Measured values: patent publication US7462617B2, “Substituted acylpiperazine derivatives” (Hoffmann-La Roche Inc., priority 2003, dated 2008)

Target: T1, mGlyT-1b (Mus musculus, UniProt P28571)
T1 construct: host or cells: Flp-in-CHO
T1 sequence (P28571 1-651 isoform P28571-2): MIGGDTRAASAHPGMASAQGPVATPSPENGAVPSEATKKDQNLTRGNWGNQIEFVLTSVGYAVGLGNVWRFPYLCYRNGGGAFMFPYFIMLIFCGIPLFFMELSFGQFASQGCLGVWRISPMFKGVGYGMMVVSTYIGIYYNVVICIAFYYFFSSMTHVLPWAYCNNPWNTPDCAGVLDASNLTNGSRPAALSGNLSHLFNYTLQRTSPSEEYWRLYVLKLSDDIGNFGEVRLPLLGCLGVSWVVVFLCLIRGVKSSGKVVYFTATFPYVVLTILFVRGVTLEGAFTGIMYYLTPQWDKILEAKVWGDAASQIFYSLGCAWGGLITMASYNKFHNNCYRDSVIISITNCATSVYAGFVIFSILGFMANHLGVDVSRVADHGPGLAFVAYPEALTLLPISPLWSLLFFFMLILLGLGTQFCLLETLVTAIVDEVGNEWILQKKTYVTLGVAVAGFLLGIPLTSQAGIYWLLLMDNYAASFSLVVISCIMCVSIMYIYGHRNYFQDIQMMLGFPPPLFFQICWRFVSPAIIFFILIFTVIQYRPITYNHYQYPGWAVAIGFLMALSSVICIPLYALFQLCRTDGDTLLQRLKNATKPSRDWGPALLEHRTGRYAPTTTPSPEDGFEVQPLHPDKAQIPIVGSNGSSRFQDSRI
Experiment: Glycine Uptake Inhibition Assay (mGlyT-1b)
Assay type: cell-based
Conditions: [3H]-glycine uptake in Flp-in-CHO cells stably transfected with mGlyT1b cDNA; 20 min preincubation at 22° C.; read-out: IC50 (μM) at GlyT-1
Method: DMEM complete medium: Nutrient mixture F-12 (Gibco Life-technologies), fetal bovine serum (FBS) 5%, (Gibco life technologies), Penicillin/Streptomycin 1% (Gibco life technologies), Hygromycin 0.6 mg/ml (Gibco life technologies), Glutamine 1 mM Gibco life technologies)
Uptake buffer (UB): 150 mM NaCl, 10 mM Hepes-Tris, pH 7.4, 1 mM CaCl2, 2.5 mM KCl, 2.5 mM MgSO4, 10 mM (+) D-glucose. Flp-in™-CHO (Invitrogen Cat n^o R758-07)cells stably transfected with mGlyT1b cDNA.
Glycine Uptake Inhibition Assay (mGlyT-1b)
On day 1 mammalian cells, (Flp-in™-CHO), transfected with mGlyT-1b cDNA, were plated at the density of 40,000 cells/well in complete F-12 medium, without hygromycin in 96-well culture plates. On day 2 ,the medium was aspirated, and the cells were washed twice with uptake buffer (UB). The cells were then incubated for 20 min at 22° C. with either (i) no potential competitor, (ii) 10 mM non-radioactive glycine, (iii) a concentration of a potential inhibitor. A range of concentrations of the potential inhibitor was used to generate data for calculating the concentration of inhibitor resulting in 50% of the effect (e.g. IC50, the concentration of the competitor inhibiting glycine uptake of 50%). A solution was then immediately added containing [^3H]-glycine 60 nM (11-16 Ci/mmol) and 25 μM non-radioactive glycine. The plates were incubated with gentle shaking, and the reaction was stopped by aspiration of the mixture and washing (three times) with ice-cold UB. The cells were lysed with scintillation liquid, shaken 3 hours, and the radioactivity in the cells was counted using a scintillation counter.

SMILES | IC50 [µM]
CS(=O)(=O)c1ccc(C2=CCOCC2)c(C(=O)N2CCN(c3ccc(C(F)(F)F)cc3)CC2)c1 [Example 60, [2-(3,6-Dihydro-2H-pyran-4-yl)-5-methanesulfonyl-phenyl]-[4-(4-trifluoromethyl-phenyl)-piperazin-1-yl]-methanone] | 0.019
CS(=O)(=O)c1ccc(-c2ccncc2)c(C(=O)N2CCN(c3ccc(C(F)(F)F)cc3)CC2)c1 [Example 59, (5-Methanesulfonyl-2-pyridin-4-yl-phenyl)-[4-(4-trifluoromethyl-phenyl)-piperazin-1-yl]-methanone] | 0.033
CS(=O)(=O)c1ccc(-c2ccccc2F)c(C(=O)N2CCN(c3ncc(C(F)(F)F)cc3Cl)CC2)c1 [Example 111, [4-(3-Chloro-5-trifluoromethyl-pyridin-2-yl)-piperazin-1-yl]-(2′-fluoro-4-methanesulfonyl-biphenyl-2-yl)-methanone] | 0.038
CC(=O)c1ccc(N2CCN(C(=O)c3cc(S(C)(=O)=O)ccc3C3=CCOCC3)CC2)c(F)c1 [Example 72, 1-(4-{4-[2-(3,6-Dihydro-2H-pyran-4-yl)-5-methanesulfonyl-benzoyl]-piperazin-1-yl}-3-fluoro-phenyl)-ethanone] | 0.021
CC(=O)c1ccc(N2CCN(C(=O)c3cc(S(C)(=O)=O)ccc3-c3ccsc3)CC2)cc1 [Example 127, 1-{4-[4-(5-Methanesulfonyl-2-thiophen-3-yl-benzoyl)-piperazin-1-yl]-phenyl}-ethanone] | 0.036
CS(=O)(=O)c1ccc(C2CCCC2)c(C(=O)N2CCN(c3ccc(C(F)(F)F)cc3)CC2)c1 [Example 79, (2-Cyclopentyl-5-methanesulfonyl-phenyl)-[4-(4-trifluoromethyl-phenyl)-piperazin-1-yl]-methanone] | 0.008
CC(=O)c1ccc(N2CCN(C(=O)c3cc(S(C)(=O)=O)ccc3C3=CCCCC3)CC2)c(F)c1 [Example 68, 1-{4-[4-(2-Cyclohex-1-enyl-5-methanesulfonyl-benzoyl)-piperazin-1-yl]-3-fluoro-phenyl}-ethanone] | 0.007
CS(=O)(=O)c1ccc(-c2ccsc2)c(C(=O)N2CCN(c3ccc(C(F)(F)F)cc3)CC2)c1 [Example 53, (5-Methanesulfonyl-2-thiophen-3-yl-phenyl)-[4-(4-trifluoromethyl-phenyl)-piperazin-1-yl]-methanone] | 0.006
CS(=O)(=O)c1ccc(-c2ccc(F)cc2)c(C(=O)N2CCN(c3ccc(C(F)(F)F)cc3F)CC2)c1 [Example 63, (4′-Fluoro-4-methanesulfonyl-biphenyl-2-yl)-[4-(2-fluoro-4-trifluoromethyl-phenyl)-piperazin-1-yl]-methanone] | 0.01
CC(=O)c1ccc(N2CCN(C(=O)c3cc(S(C)(=O)=O)ccc3C3=CCCCCC3)CC2)c(F)c1 [Example 73, 1-{4-[4-(2-Cyclohept-1-enyl-5-methanesulfonyl-benzoyl)-piperazin-1-yl]-3-fluoro-phenyl}-ethanone] | 0.013
CC(=O)c1ccc(N2CCN(C(=O)c3cc(S(C)(=O)=O)ccc3C3=CCCC3)CC2)c(F)c1 [Example 71, 1-{4-[4-(2-Cyclopent-1-enyl-5-methanesulfonyl-benzoyl)-piperazin-1-yl]-3-fluoro-phenyl}-ethanone] | 0.013
CS(=O)(=O)c1ccc(-c2ccccc2F)c(C(=O)N2CCN(c3ccc(C#N)cc3F)CC2)c1 [Example 126, 3-Fluoro-4-[4-(2′-fluoro-4-methane-sulfonyl-biphenyl-2-carbonyl)-piperazin-1-yl]-benzonitrile] | 0.039
CS(=O)(=O)c1ccc(-c2ccccc2)c(C(=O)N2CCN(c3ccc(C(F)(F)F)cc3F)CC2)c1 [Example 62, [4-(2-Fluoro-4-trifluoromethyl-phenyl)-piperazin-1-yl]-(4-methanesulfonyl-biphenyl-2-yl)-methanone] | 0.019
CNS(=O)(=O)c1ccc(-c2ccccc2)c(C(=O)N2CCN(c3ccc(C(F)(F)F)cc3)CC2)c1 [Example 76, 2-[4-(4-Trifluoromethyl-phenyl)-piperazine-1-carbonyl]-biphenyl-4-sulfonic acid methylamide] | 0.012

Continued, values first:

IC50 [µM] | SMILES
0.011 | CS(=O)(=O)c1ccc(C2=CCCCC2)c(C(=O)N2CCN(c3ccc(C(F)(F)F)cc3)CC2)c1 [Example 77, (2-Cyclohex-1-enyl-5-methanesulfonyl-phenyl)-[4-(4-trifluoromethyl-phenyl)-piperazin-1-yl]-methanone]
0.032 | COC(=O)c1ccc([N+](=O)[O-])cc1C(=O)N1CCN(c2ccc(C(C)=O)cc2F)CC1 [Example 43, 2-[4-(4-Acetyl-2-fluoro-phenyl)-piperazine-1-carbonyl]-4-nitro-benzoic acid methyl ester]
0.035 | CS(=O)(=O)c1ccc(-c2ccccc2)c(C(=O)N2CCN(c3ncc(C(F)(F)F)cc3Cl)CC2)c1 [Example 114, [4-(3-Chloro-5-trifluoromethyl-pyridin-2-yl)-piperazin-1-yl]-(4-methanesulfonyl-biphenyl-2-yl)-methanone]
0.014 | CS(=O)(=O)c1ccc(C2=CCCCCC2)c(C(=O)N2CCN(c3ccc(C(F)(F)F)cc3)CC2)c1 [Example 75, (2-Cyclohept-1-enyl-5-methanesulfonyl-phenyl)-[4-(4-trifluoromethyl-phenyl)-piperazin-1-yl]-methanone]
0.023 | CC(=O)c1ccc(N2CCN(C(=O)c3cc([N+](=O)[O-])ccc3-c3ccccc3)CC2)c(F)c1 [Example 15, 1-{3-Fluoro-4-[4-(4-nitro-biphenyl-2-carbonyl)-piperazin-1-yl]-phenyl}-ethanone]
0.026 | CC(=O)c1ccc(N2CCN(C(=O)c3cc([N+](=O)[O-])ccc3C3CC3)CC2)c(F)c1 [Example 16, 1-{4-[4-(2-Cyclopropyl-5-nitro-benzoyl)-piperazin-1-yl]-3-fluoro-phenyl}-ethanone]
0.039 | Cc1ccc(-c2ccc(S(C)(=O)=O)cc2C(=O)N2CCN(c3ccc(C(F)(F)F)cc3)CC2)s1 [Example 55, [5-Methanesulfonyl-2-(5-methyl-thiophen-2-yl)-phenyl]-[4-(4-trifluoromethyl-phenyl)-piperazin-1-yl]-methanone]
0.022 | CS(=O)(=O)c1ccc(C2=CCOCC2)c(C(=O)N2CCN(c3ccc(C(F)(F)F)cc3F)CC2)c1 [Example 91, [2-(3,6-Dihydro-2H-pyran-4-yl)-5-methanesulfonyl-phenyl]-[4-(2-fluoro-4-trifluoromethyl-phenyl)-piperazin-1-yl]-methanone]
0.033 | CS(=O)(=O)c1ccc(-c2cccs2)c(C(=O)N2CCN(c3ccc(C(F)(F)F)cc3)CC2)c1 [Example 52, (5-Methanesulfonyl-2-thiophen-2-yl-phenyl)-[4-(4-trifluoromethyl-phenyl)-piperazin-1-yl]-methanone]
0.031 | CCc1ccc(N2CCN(C(=O)c3cc(S(C)(=O)=O)ccc3C3CCCCC3)CC2)c(F)c1 [Example 69, (2-Cyclohexyl-5-methanesulfonyl-phenyl)-[4-(4-ethyl-2-fluoro-phenyl)-piperazin-1-yl]-methanone]

Tested on: not given
Experiment: not given
Conditions: not given

melting point [°C] | SMILES
189 to 191 | COC(=O)c1ccc([N+](=O)[O-])cc1C(=O)N1CCN(c2ccc(C(C)=O)cc2F)CC1 [Example 43, 2-[4-(4-Acetyl-2-fluoro-phenyl)-piperazine-1-carbonyl]-4-nitro-benzoic acid methyl ester]
209 to 211 | CC(=O)c1ccc(N2CCN(C(=O)c3c(Cl)ccc([N+](=O)[O-])c3Cl)CC2)c(F)c1 [Example 12, 1-{4-[4-(2,6-Dichloro-3-nitro-benzoyl)-piperazin-1-yl]-3-fluoro-phenyl}-ethanone]
